According to publication PMC12021657, “Rapid traversal of vast chemical space using machine learning-guided docking screens” (Nature Computational Science, 2025):

Key:
[1] = target: T1, Human D2R (Homo sapiens, UniProt P14416); assay: Human D2R competition radioligand binding ([3H]-spiperone, CHO-D2R #S20 membranes); conditions: mean ± SEM from three independent experiments
T1 construct: expressed in transfected cells
Method: (§1) Screening compounds (Supplementary Tables 10 and 12) were purchased from Enamine (compound purity >90%, which was confirmed by liquid chromatography−mass spectrometry and ^1H NMR spectroscopy for identified ligands; Supplementary Figs. 19–30). Human D2R competition binding experiments were carried out in polypropylene 96-well plates. Each well contained 20 µg of membranes from a CHO-D2R #S20 cell line (protein concentration of 4,322 µg ml^−1), 1.5 nM [^3H]-spiperone (54.3 Ci mmol^−1, 1 mCi ml^−1, PerkinElmer NET1187250UC) and the compound studied. Non-specific binding was determined in the presence of 10 µM sulpiride (Sigma Aldrich S8010). The reaction mixture (250 µl per well) was incubated at 25 °C for 120 min, after which 200 µl was transferred to a GF/C 96-well plate (Millipore) pretreated with 0.5% PEI and treated with binding buffer (50 mM Tris-HCl, 1 mM EDTA, 5 mM MgCl2, 5 mM KCl, 120 mM NaCl, pH 7.4). The reaction mixture was filtered and washed 4 times with 250 µl wash buffer (50 mM Tris-HCl, 0.9% NaCl, pH 7.4) before the addition of 30 μl Universol. The final measurement was performed in a microplate beta scintillation counter (Microbeta Trilux, PerkinElmer). Human A2AR competition binding experiments were carried out in a multiscreen GF/C 96-well plate (Millipore) pretreated with binding buffer (Tris-HCl 50 mM, EDTA 1 mM, MgCl2 10 mM, 2 U ml^−1 adenosine deaminase, pH 7.4). Each well was incubated with 5 μg of membranes from the HeLa-A2A cell line and prepared in our laboratory (lot A003/14-04-2019, protein concentration 2,058 μg ml^−1), 1 nM [^3H]-ZM241385 (50 Ci mmol^−1, 1 mCi ml^−1, ARC-ITISA 0884), and the compounds studied and standards. Non-specific binding was determined in the presence of NECA 50 μM (Sigma E2387). The reaction mixture (total volume of 200 μl per well) was incubated at 25 °C for 30 min, then filtered and washed 4 times with 250 μl wash buffer (Tris-HCl 50 mM, EDTA 1 mM, MgCl2 10 mM, pH 7.4), and measured in a microplate beta scintillation counter (Microbeta Trilux, PerkinElmer). Unless stated otherwise, three independent experiments were carried out to calculate Ki values.

[2] = target: T2, Human A2AR (Homo sapiens, UniProt P29274); assay: Human A2AR competition radioligand binding ([3H]-ZM241385, HeLa-A2A membranes); conditions: for A2AR radioligand displacement at 20 µM (%): 20 µM compound, mean ± SEM of two technical replicates
T2 construct: expressed in transfected cells; host or cells: HeLa-A2A cell line (membranes prepared in house, lot A003/14-04-2019)
T2 sequence (P29274 whole entry): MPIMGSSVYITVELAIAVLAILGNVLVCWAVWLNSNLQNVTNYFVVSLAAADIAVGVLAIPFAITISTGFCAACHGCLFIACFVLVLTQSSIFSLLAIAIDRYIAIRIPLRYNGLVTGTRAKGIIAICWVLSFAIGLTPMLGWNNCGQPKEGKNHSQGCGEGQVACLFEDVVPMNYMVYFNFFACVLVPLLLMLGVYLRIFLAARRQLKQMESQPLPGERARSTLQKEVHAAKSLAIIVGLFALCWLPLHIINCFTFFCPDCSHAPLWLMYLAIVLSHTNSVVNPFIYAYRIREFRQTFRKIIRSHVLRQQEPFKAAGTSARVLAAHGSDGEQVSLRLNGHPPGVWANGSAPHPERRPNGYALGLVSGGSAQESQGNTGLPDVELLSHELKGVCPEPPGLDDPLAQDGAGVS
Method: as §1

T1 sequence (P14416 whole entry): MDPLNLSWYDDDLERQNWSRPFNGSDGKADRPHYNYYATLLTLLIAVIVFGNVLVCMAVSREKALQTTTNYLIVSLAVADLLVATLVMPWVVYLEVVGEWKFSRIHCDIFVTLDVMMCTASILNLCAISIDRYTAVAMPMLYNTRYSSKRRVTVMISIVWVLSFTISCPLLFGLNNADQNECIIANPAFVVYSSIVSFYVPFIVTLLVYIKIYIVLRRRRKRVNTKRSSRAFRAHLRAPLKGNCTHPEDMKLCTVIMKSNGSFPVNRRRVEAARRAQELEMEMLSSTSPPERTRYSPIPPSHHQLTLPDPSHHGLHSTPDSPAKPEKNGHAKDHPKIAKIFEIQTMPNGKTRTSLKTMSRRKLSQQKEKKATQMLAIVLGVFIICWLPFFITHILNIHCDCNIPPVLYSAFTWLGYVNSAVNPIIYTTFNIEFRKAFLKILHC

Row | SMILES | A2AR radioligand displacement at 20 µM (%) [2] | other results
1 | NC(=NCCc1c[nH]c2c(Cl)cc(Cl)cc12)Nc1ncccn1 [Compound 5, c1cnc(nc1)NC(=NCCc2c[nH]c3c2cc(cc3Cl)Cl)N] |  | Ki [1]: 14 µM; Ki ([2]; fit to concentration-response curve from two technical replicates, compound 5 three independent experiments (mean ± SEM), read-out: Ki (A2AR)): ~20 µM
2 | O=C(NCc1nccc(=O)[nH]1)C1CCCN1Cc1ccccc1 (stereo not drawn) [Z4219981720, c1ccc(cc1)CN2CCCC2C(=O)NCc3[nH]c(=O)ccn3] | 6±4% | 
3 | O=c1[nH]c(NCC2CCN(CCc3ccccc3)C2)nc2ccsc12 (stereo not drawn) [Z5332306614, c1ccc(cc1)CCN2CCC(C2)CNc3[nH]c(=O)c4c(n3)ccs4] | 8±1% | 
4 | CCc1ccnc(NCC2CN(Cc3ccccc3)CC2C)n1 (stereo not drawn) [Z5471612810, CCc1ccnc(n1)NCC2CN(CC2C)Cc3ccccc3] | 2±1% | 
5 | Cc1nc(NC(=O)C(N)Cc2cccc(Br)n2)[nH]c1C (stereo not drawn) [Z6382061841, Cc1c(nc([nH]1)NC(=O)C(Cc2cccc(n2)Br)N)C] | 2±2% | 
6 | NC(Cc1ccccc1Cl)C(=O)N1CC(C(=O)Nc2nccs2)C1 (stereo not drawn) [Z6437654059, c1ccc(c(c1)CC(C(=O)N2CC(C2)C(=O)Nc3nccs3)N)Cl] | 3±2% | 
7 | O=C(CN1CCC1Cc1ccccc1)Nc1ncc[nH]1 (stereo not drawn) [Z6743522026, c1ccc(cc1)CC2CCN2CC(=O)Nc3[nH]ccn3] | 5±3% | 
8 | CC(Cc1c[nH]c2ncccc12)NCc1nn(C)c2ccccc12 (stereo not drawn) [Z7272600070, CC(Cc1c[nH]c2c1cccn2)NCc3c4ccccc4n(n3)C] | 20±1% | 
9 | COc1cc(CNC(C)Cc2c[nH]c3ncccc23)ncc1C (stereo not drawn) [Z7326877935, Cc1cnc(cc1OC)CNC(C)Cc2c[nH]c3c2cccn3] | 13±2% | 
10 | Cc1ccc(NCCNC(=O)C2Cc3c(C)cccc3CN2)nc1 (stereo not drawn) [Z8854579335, Cc1ccc(nc1)NCCNC(=O)C2Cc3c(cccc3CN2)C] | 6±2% | 
11 | COc1ccc(Cl)c(CCN=C(N)Nc2ncccn2)c1 [Z8854579336, COc1ccc(c(c1)CCN=C(N)Nc2ncccn2)Cl] | 39±1% | 
12 | NC(=NCCc1ccccc1Cl)Nc1ncccn1 [Z8854579337, c1ccc(c(c1)CCN=C(N)Nc2ncccn2)Cl] | 29±4% | 
13 | N[C@@H](CC(=O)Nc1nc2c(Br)cc(F)cc2[nH]1)Cc1ccccc1 [Z8854579338, c1ccc(cc1)C[C@H](CC(=O)Nc2[nH]c3cc(cc(c3n2)Br)F)N] | 49±2% | 
14 | NC(CC(=O)Nc1cc2ncccn2n1)C(=O)OCc1ccccc1 (stereo not drawn) [Z8854579341, c1ccc(cc1)COC(=O)C(CC(=O)Nc2cc3ncccn3n2)N] | 2±2% | 
15 | N[C@H]1c2ccccc2C[C@H]1C(=O)Nc1ccn(-c2ccccn2)n1 [Z8854579342, c1ccc2c(c1)C[C@H]([C@H]2N)C(=O)Nc3ccn(n3)c4ccccn4] | 30±2% | 
16 | NC(=NCCOc1ccc(F)cc1)Nc1ncccn1 [Z8854579344, c1cnc(nc1)NC(=NCCOc2ccc(cc2)F)N] | 17±1% | 
17 | NC(=NCc1cc2ccccc2o1)Nc1ncccn1 [Z8854579345, c1ccc2c(c1)cc(o2)CN=C(N)Nc3ncccn3] | 32±2% | 
18 | NC(=NCCOc1cccc(C(F)(F)F)c1)Nc1ncccn1 [Z8854579346, c1cc(cc(c1)OCCN=C(N)Nc2ncccn2)C(F)(F)F] | 23±1% | 
19 | NC(=NCc1ccsc1-n1cccc1)Nc1ncccn1 [Z8854579347, c1ccn(c1)c2c(ccs2)CN=C(N)Nc3ncccn3] | 32±4% | 

Row | SMILES | A2AR radioligand displacement at 20 µM (%) [2] | other results
20 | Cc1ccc(C[C@H](N)CC(=O)Nc2nc3c(C)cccc3[nH]2)cc1 [Z8854579350, Cc1ccc(cc1)C[C@@H](CC(=O)Nc2[nH]c3cccc(c3n2)C)N] | 30±3% | 
21 | Cc1cccc2[nH]c(NC(=O)C(N)Cc3csc4ccccc34)nc12 (stereo not drawn) [Z8854579351, Cc1cccc2c1nc([nH]2)NC(=O)C(Cc3csc4c3cccc4)N] | 31±1% | 
22 | Cc1cccc2[nH]c(NC(=O)C(N)Cc3cccc(Cl)c3)nc12 (stereo not drawn) [Z8854579352, Cc1cccc2c1nc([nH]2)NC(=O)C(Cc3cccc(c3)Cl)N] | 57±4% | 
23 | NC(=NCCc1ccccc1OC(F)(F)F)Nc1ncccn1 [Z8854579353, c1ccc(c(c1)CCN=C(N)Nc2ncccn2)OC(F)(F)F] | 22±5% | 
24 | Cc1cccc2c1CC(C(=O)NCCNc1ncccn1)NC2 (stereo not drawn) [Z8854579354, Cc1cccc2c1CC(NC2)C(=O)NCCNc3ncccn3] | 1±1% | 
25 | NC(=NCCc1cccc(Br)c1)Nc1ncccn1 [Z8854579355, c1cc(cc(c1)Br)CCN=C(N)Nc2ncccn2] | 28±1% | 
26 | CSc1ccc(CCN=C(N)Nc2ncccn2)cc1 [Z8854579356, CSc1ccc(cc1)CCN=C(N)Nc2ncccn2] | 15±1% | 
27 | NC(=NCCc1c(F)cccc1Cl)Nc1ncccn1 [Z8854579358, c1cc(c(c(c1)Cl)CCN=C(N)Nc2ncccn2)F] | 16±4% | 
28 | NC(=NCCOc1ccc(F)c(Cl)c1)Nc1ncccn1 [Z8854579360, c1cnc(nc1)NC(=NCCOc2ccc(c(c2)Cl)F)N] | 26±3% | 
29 | COc1ccc(CCN=C(N)Nc2ncccn2)c(F)c1 [Z8854579362, COc1ccc(c(c1)F)CCN=C(N)Nc2ncccn2] | 12±4% | 
30 | NC(=NCCc1c(F)cccc1Br)Nc1ncccn1 [Z8854579363, c1cc(c(c(c1)Br)CCN=C(N)Nc2ncccn2)F] | 20±1% | 
31 | NC(=NCCCc1ccc(F)cc1)Nc1ncccn1 [Z8854579364, c1cnc(nc1)NC(=NCCCc2ccc(cc2)F)N] | 17±4% | 
32 | Cc1ccc(F)c(CCN=C(N)Nc2ncccn2)c1 [Z8854579366, Cc1ccc(c(c1)CCN=C(N)Nc2ncccn2)F] | 15±1% | 
33 | Cn1ccc(NC(=O)CNC(=O)C2Cc3c(Br)cccc3CN2)n1 (stereo not drawn) [Z8854579367, Cn1ccc(n1)NC(=O)CNC(=O)C2Cc3c(cccc3Br)CN2] | 10±2% | 
34 | NC(=NCCc1ccc(F)cc1F)Nc1ncccn1 [Z8854579368, c1cnc(nc1)NC(=NCCc2ccc(cc2F)F)N] | 14±1% | 
35 | NC(=NCCOc1ccc(F)cc1F)Nc1ncccn1 [Z8854579369, c1cnc(nc1)NC(=NCCOc2ccc(cc2F)F)N] | 2±3% | 
36 | NC(=NCCc1ccc(F)cc1)Nc1ncccn1 [Z8854579370, c1cnc(nc1)NC(=NCCc2ccc(cc2)F)N] | 11±1% | 
37 | Cc1ccncc1CNC(=O)C(N)Cc1c[nH]c2ncccc12 (stereo not drawn) [Z8857701713, Cc1ccncc1CNC(=O)C(Cc2c[nH]c3c2cccn3)N] | 3±2% | 
38 | NC(=NCc1c(Cl)cccc1Cl)Nc1ncccn1 [Z8861112994, c1cc(c(c(c1)Cl)CN=C(N)Nc2ncccn2)Cl] | 32±2% | 
